# Test results: patent US8754047B2, “Peptide compositions and methods of use” (The Research Foundation for the State University of New York, priority 2008, dated 2014)
# Values joined by “and” are separate entries in the source; they are usually repeats but may differ in a detail not shown here. Identical values can stand only once. Positions of bridges follow the written chain, without caps; N, C: chain ends. Residues, ends and D or L forms follow the SMILES beside them.
# Experiments:
# [1] = system: MDA-MB-231 breast cancer cells; details: 24 h
# Method: (§1) 10,000 HT29 or SW480 human colon cancer cells, BxPC-3 human pancreatic cancer cells, and MCF7 and MDA-MB-231 breast cancer cells were obtained from American Type Culture Collection (ATTC), Manassas, Va., and were seeded in separate 96-well plates. After treatment with various concentrations (6.25 μM, 12.5 μM, 25 μM, 50 μM, 100 μM, or 200 μM) of test peptide for 24 h, cells were stained with MTT (3-(4,5-Dimethyl-2-thiazolyl)-2,5-diphenyl-2H-tetrazolium bromide, from Sigma-Aldrich) following the instructions of the manufacturer. Before dissolving MTT in SDS, the HT29 and SW480 cells were photographed using a digital camera connected with a phase-contrast microscope. (FIG. 2A1-8, and FIG. 2B1-6). Cells that are alive convert MTT into formazan in their active mitochondria and appear dark purple; dead cells are not stained by MTT and appear colorless.
# (§2) The IC50 is the concentration of the test agent that inhibits cell growth by 50% at 24 hours of exposure. IC50s were determined using the MTT assay or using the cell Titer-Glo method and following the instructions of the manufacturer ([…]). […] (Sun, Y., and Rigas, B., (2008), Cancer Res., 68(20): 8269-8277).
# MCF7 breast cancer cells = details: 24 h
# Method: as §1, §2
# [2] = system: BxPC-3 human pancreatic cancer cells; details: 24 h
# Method: as §1, §2
# [3] = system: SW480 human colon cancer cells; experiment: Flow cytometry forward/side scatter, proportion of dead cells, SW480; type: cell-based; details: 200 μM, 24 hr
# Method: (§3) SW480 human colon cancer cells and MCF7 breast cancer cells were grown following the instructions of American Type Culture Collection (ATCC, Monassas, Va.). The cells were treated with the test peptides (YJB01, YJB05, or YJB06) for 24 hrs at concentrations ranging from 0 μM, to 200 μM and subjected to flow cytometric analysis following standard protocols.
# (§4) SW480 human colon cancer cells and MCF7 breast cancer cells were grown following the instructions of American Type Culture Collection (ATCC, Monassas, Va.). The cells were treated with the test peptides for 24 hrs at concentrations ranging from 0 μM, to 200 μM and subjected to flow cytometry analysis following standard protocols. […] The circumscribed (gated, outlined) areas in the figure indicate dead cells; dead cells generally have higher density (side scatter) and smaller size (forward scatter) than living cells.
# [4] = system: SW480 human colon cancer cells; experiment: In vitro cell viability assay by MTT / cell Titer-Glo, SW480; details: 24 h
# Method: as §1, §2
# The effect of peptide YJB02 on SW480 colon cancer cells was compared to the effect of peptide YJB02 on the normal human colon epithelial cell line NCM460. […] The viability was determined as described in Example 2.
# [5] = system: HT29 human colon cancer cells; type: cell-based; details: inhibits cell growth by 50% at 24 hours of exposure; MTT or cell Titer-Glo; read-out: IC50s, HT29
# From the text: (FIG. 2A1-8, and FIG. 2B1-6).
# [6] = system: MCF-7 human breast cancer cells; experiment: Flow cytometry forward/side scatter, proportion of dead cells, MCF7; type: cell-based; details: 200 μM, 24 hr
# Method: as §3, §4
# [7] = system: SW480 human colon cancer cells; experiment: RONS levels by DCFDA probe, flow cytometry; type: cell-based; details: 1 hr, control 14.69
# Method: (§5) SW480 human colon cancer cells were grown following the instructions of American Type Culture Collection (ATCC, Monassas, Va.). The cells were treated with the test peptide YJB01 for 1 hr at either 20 μM or 100 μM. After treatment, cells were trypsinized and stained with DCFDA (10 μmol/L) for 30 minutes at 37° C. DCFDA fluorescence intensity was analyzed by FACSCaliber (BD Bioscience) following standard protocols. […] Thus, FIG. 6A indicates YJB01 induces RONS production in a concentration dependent manner.
# The levels of RONS in SW480 and MCF-7 cells were evaluated using the methodology described in Rigas, B., and Y. Sun. (2008), using the general RONS probe, dichlorodihydrofluorescein diacetate (DCFDA). (Rigas, B., and Sun., Y., (2008), Br J Cancer 98:1157-1160).
# as §5, with “37°.” for “37° C.”
# [8] = system: SW480 human colon cancer cells; experiment: Annexin V-FITC flow cytometry for apoptotic cells, SW480; type: cell-based; details: 24 hrs, 0 μM to 200 μM
# Method: (§6) SW480 human colon cancer cells and MCF7 breast cancer cells were grown following the instructions of American Type Culture Collection (ATCC, Monassas, Va.). The cells were treated with the test peptides (YJB01, YJB05, or YJB06) for 24 hrs at concentrations ranging from 0 μM, to 200 μM. After treatment, cells were trypsinized and stained with Annexin V-FITC (100× dilution) for 15 minutes. Annexin V-FITC fluorescence intensities were analyzed by FACSCaliber (BD Bioscience) following standard protocols. Annexin V (+) cells are apoptotic cells.
# When cells undergo apoptosis, the inner membrane phospholipid, phosphotidylserine (PS), flips to the outer membrane and can be recognized by the […]. The green FITC fluorescence can be determined by flow cytometry and thus Annexin V (+) cells are apoptotic cells.
# as §6, with “In this study, SW480” for “SW480”, “human” for “human colon”, “treatment” for “treatment,”, “protocols.” for “protocols. Annexin V (+) cells are apoptotic cells.”
# [9] = system: SW480 human colon cancer cell xenografts; experiment: In vivo xenograft assay of tumor size, SCID mice; details: 100 μg intraperitoneally once a day, 10 days, one mouse
# Method: Immunodeficient SCID mice (from Jackson Lab) were transplanted subcutaneously to their flank with 1.5 million SW480 human colon cancer cells. After the tumor size reached 120-150 mm^3, one mouse was treated with 100 μg YJB01 peptide injected intraperitoneally once a day, and the other one was treated with DMSO as a vehicle control. The tumor size was measured every two days (see FIG. 3A and FIG. 3B). The tumor volume was calculated based on its length (L) and width (W) using the formula Tumor volume=LW(L+W/2)0.56. (Rigas, B., and Kozoni, V., (2008) International Journal of Oncology, 32: 97-100). On the 10th day of treatment, the tumor volume was determined, the SCID mice were sacrificed and the tumors were excised and their weight was recorded (FIG. 3B).
smiles,measurement,setting,value
CC[C@H](C)[C@H](NC(=O)[C@H](CCCCN)NC(=O)[C@@H](NC(=O)[C@H](CCC(N)=O)NC(=O)[C@H](CCCNC(=N)N)NC(=O)[C@@H]1CCCN1C(=O)[C@H](CCCCN)NC(=O)[C@@H]1CSSC[C@H](NC(=O)[C@H](Cc2c[nH]c3ccccc23)NC(=O)[C@@H](NC(=O)[C@H](C)N)[C@@H](C)O)C(=O)NCC(=O)N2CCC[C@H]2C(=O)N1)[C@@H](C)CC)C(=O)N[C@@H](Cc1c[nH]c2ccccc12)C(=O)N[C@@H](Cc1ccccc1)C(=O)N[C@@H](CCC(N)=O)C(=O)N[C@@H](CC(N)=O)C(=O)N[C@@H](CCCNC(=N)N)C(=O)N[C@@H](CCCNC(=N)N)C(=O)N[C@@H](CCSC)C(=O)N[C@@H](CCCCN)C(=O)N[C@@H](Cc1c[nH]c2ccccc12)C(=O)N[C@@H](CCCCN)C(=O)N[C@@H](CCCCN)C(=O)O [YJB01] (H-ATWCGPCKPRQIKIWFQNRRMKWKK-OH; disulfide 4-7; N-terminus and C-terminus assumed),IC50,[1],88 µM
same,IC50,MCF7 breast cancer cells,68.9 µM
same,IC50,[2],109 µM
same,"dead cells, SW480",[3],81.19%
same,IC50,[4],34.7 µM
same,IC50,[5],89 µM
same,"dead cells, MCF7",[6],72.12%
same,Geometric Mean of the fluorescence intensity of DCFDA,[7]; 20 μM,19.05
same,Geometric Mean of the fluorescence intensity of DCFDA,[7]; 100 μM,29.6
same,"apoptosis, Annexin V (+) cells, SW480",[8],cell killing effect
same,tumor growth at day 10 comparing with day 1,[9],−0.04% and −4%
